Test results as given in a compilation of properties of binary mixtures (doi:10.1016/j.molliq.2022.119944).

Assay: xn = mol fraction of the nth substance listed
Conditions: 293.15 K; 101.3 kPa; x1 = 0.1

viscosity | SMILES
2.55 mPa·s | C=C[n+]1ccn(CCCC)c1.N[C@@H](Cc1c[nH]cn1)C(=O)[O-] + O
7.17 mPa·s | C=Cn1cc[n+](CCCC)c1.NCC(=O)[O-] + O
3.29 mPa·s | C=C[n+]1ccn(CCCC)c1.NCCCC[C@H](N)C(=O)[O-] + O
6.68 mPa·s | C=C[n+]1ccn(CCCC)c1.N[C@@H](CO)C(=O)[O-] + O

Same assay, conditions: 293.15 K; 101.3 kPa; x1 = 0.3

viscosity | SMILES
10.63 mPa·s | C=C[n+]1ccn(CCCC)c1.N[C@@H](Cc1c[nH]cn1)C(=O)[O-] + O
23.93 mPa·s | C=Cn1cc[n+](CCCC)c1.NCC(=O)[O-] + O

Same assay, conditions: 293.15 K; 101.3 kPa; x1 = 0.5

viscosity | SMILES
26.91 mPa·s | C=C[n+]1ccn(CCCC)c1.N[C@@H](Cc1c[nH]cn1)C(=O)[O-] + O
95.4 mPa·s | C=C[n+]1ccn(CCCC)c1.N[C@@H](CO)C(=O)[O-] + O

Same assay, conditions: 293.15 K; 101.3 kPa; x1 = 0.7

viscosity | SMILES
92.2 mPa·s | C=C[n+]1ccn(CCCC)c1.N[C@@H](Cc1c[nH]cn1)C(=O)[O-] + O
403 mPa·s | C=Cn1cc[n+](CCCC)c1.NCC(=O)[O-] + O
95.3 mPa·s | C=C[n+]1ccn(CCCC)c1.NCCCC[C@H](N)C(=O)[O-] + O
720 mPa·s | C=C[n+]1ccn(CCCC)c1.N[C@@H](CO)C(=O)[O-] + O

Same assay, conditions: 293.15 K; 101.3 kPa; x1 = 0.9

viscosity | SMILES
1475 mPa·s | C=C[n+]1ccn(CCCC)c1.N[C@@H](Cc1c[nH]cn1)C(=O)[O-] + O
2700 mPa·s | C=C[n+]1ccn(CCCC)c1.N[C@@H](CO)C(=O)[O-] + O

Same assay, conditions: 293.15 K; 101.3 kPa; x1 = 1

viscosity | SMILES
8300 mPa·s | C=C[n+]1ccn(CCCC)c1.N[C@@H](Cc1c[nH]cn1)C(=O)[O-] + O
11700 mPa·s | C=Cn1cc[n+](CCCC)c1.NCC(=O)[O-] + O
18000 mPa·s | C=C[n+]1ccn(CCCC)c1.N[C@@H](CO)C(=O)[O-] + O

Same assay, conditions: 303.15 K; 101.3 kPa; x1 = 0.1

electrical conductivity | viscosity | SMILES
2.65 S/m | 2.35 mPa·s | C=C[n+]1ccn(CCCC)c1.N[C@@H](Cc1c[nH]cn1)C(=O)[O-] + O
1.04 S/m | 7.07 mPa·s | C=Cn1cc[n+](CCCC)c1.NCC(=O)[O-] + O
1.99 S/m | 2.85 mPa·s | C=C[n+]1ccn(CCCC)c1.NCCCC[C@H](N)C(=O)[O-] + O

Same assay, conditions: 303.15 K; 101.3 kPa; x1 = 0.3

electrical conductivity | viscosity | SMILES
1.75 S/m | 19.67 mPa·s | C=Cn1cc[n+](CCCC)c1.NCC(=O)[O-] + O
2.61 S/m | 5.21 mPa·s | C=C[n+]1ccn(CCCC)c1.NCCCC[C@H](N)C(=O)[O-] + O
2.86 S/m | 13.51 mPa·s | C=C[n+]1ccn(CCCC)c1.N[C@@H](CO)C(=O)[O-] + O

Same assay, conditions: 303.15 K; 101.3 kPa; x1 = 0.5

electrical conductivity | viscosity | SMILES
3.61 S/m | 21.73 mPa·s | C=C[n+]1ccn(CCCC)c1.N[C@@H](Cc1c[nH]cn1)C(=O)[O-] + O
3.18 S/m | 71.2 mPa·s | C=C[n+]1ccn(CCCC)c1.N[C@@H](CO)C(=O)[O-] + O

Same assay, conditions: 303.15 K; 101.3 kPa; x1 = 0.7

electrical conductivity | viscosity | SMILES
2.67 S/m | 59.5 mPa·s | C=C[n+]1ccn(CCCC)c1.N[C@@H](Cc1c[nH]cn1)C(=O)[O-] + O
1.58 S/m | 282 mPa·s | C=Cn1cc[n+](CCCC)c1.NCC(=O)[O-] + O
1.91 S/m | 74.7 mPa·s | C=C[n+]1ccn(CCCC)c1.NCCCC[C@H](N)C(=O)[O-] + O
2.61 S/m | 490 mPa·s | C=C[n+]1ccn(CCCC)c1.N[C@@H](CO)C(=O)[O-] + O

Same assay, conditions: 303.15 K; 101.3 kPa; x1 = 0.9

electrical conductivity | viscosity | SMILES
0.412 S/m | 1068 mPa·s | C=Cn1cc[n+](CCCC)c1.NCC(=O)[O-] + O

Same assay, conditions: 303.15 K; 101.3 kPa; x1 = 1

electrical conductivity | viscosity | SMILES
0.07 S/m | 5300 mPa·s | C=C[n+]1ccn(CCCC)c1.N[C@@H](Cc1c[nH]cn1)C(=O)[O-] + O
0.006 S/m | 13600 mPa·s | C=C[n+]1ccn(CCCC)c1.N[C@@H](CO)C(=O)[O-] + O

Same assay, conditions: 308.15 K; 101.3 kPa; x1 = 0.1

electrical conductivity | SMILES
2.94 S/m | C=C[n+]1ccn(CCCC)c1.N[C@@H](Cc1c[nH]cn1)C(=O)[O-] + O
1.46 S/m | C=C[n+]1ccn(CCCC)c1.N[C@@H](CO)C(=O)[O-] + O

Same assay, conditions: 308.15 K; 101.3 kPa; x1 = 0.3

electrical conductivity | SMILES
3.79 S/m | C=C[n+]1ccn(CCCC)c1.N[C@@H](Cc1c[nH]cn1)C(=O)[O-] + O
1.94 S/m | C=Cn1cc[n+](CCCC)c1.NCC(=O)[O-] + O
2.78 S/m | C=C[n+]1ccn(CCCC)c1.NCCCC[C@H](N)C(=O)[O-] + O
3.08 S/m | C=C[n+]1ccn(CCCC)c1.N[C@@H](CO)C(=O)[O-] + O

Same assay, conditions: 308.15 K; 101.3 kPa; x1 = 0.5

electrical conductivity | SMILES
3.85 S/m | C=C[n+]1ccn(CCCC)c1.N[C@@H](Cc1c[nH]cn1)C(=O)[O-] + O
2.95 S/m | C=Cn1cc[n+](CCCC)c1.NCC(=O)[O-] + O
3.12 S/m | C=C[n+]1ccn(CCCC)c1.NCCCC[C@H](N)C(=O)[O-] + O
3.44 S/m | C=C[n+]1ccn(CCCC)c1.N[C@@H](CO)C(=O)[O-] + O

Same assay, conditions: 308.15 K; 101.3 kPa; x1 = 0.7

electrical conductivity | SMILES
2.95 S/m | C=C[n+]1ccn(CCCC)c1.N[C@@H](Cc1c[nH]cn1)C(=O)[O-] + O
2.3 S/m | C=C[n+]1ccn(CCCC)c1.NCCCC[C@H](N)C(=O)[O-] + O
2.84 S/m | C=C[n+]1ccn(CCCC)c1.N[C@@H](CO)C(=O)[O-] + O

Same assay, conditions: 308.15 K; 101.3 kPa; x1 = 0.9

electrical conductivity | SMILES
0.75 S/m | C=C[n+]1ccn(CCCC)c1.N[C@@H](Cc1c[nH]cn1)C(=O)[O-] + O
1.23 S/m | C=C[n+]1ccn(CCCC)c1.NCCCC[C@H](N)C(=O)[O-] + O

Same assay, conditions: 308.15 K; 101.3 kPa; x1 = 1

electrical conductivity | SMILES
0.089 S/m | C=C[n+]1ccn(CCCC)c1.N[C@@H](Cc1c[nH]cn1)C(=O)[O-] + O
0.154 S/m | C=C[n+]1ccn(CCCC)c1.NCCCC[C@H](N)C(=O)[O-] + O
0.007 S/m | C=C[n+]1ccn(CCCC)c1.N[C@@H](CO)C(=O)[O-] + O

Same assay, conditions: 313.15 K; 101.3 kPa; x1 = 0.1

electrical conductivity | viscosity | SMILES
3.12 S/m | 2.08 mPa·s | C=C[n+]1ccn(CCCC)c1.N[C@@H](Cc1c[nH]cn1)C(=O)[O-] + O
1.19 S/m | 6.73 mPa·s | C=Cn1cc[n+](CCCC)c1.NCC(=O)[O-] + O
2.36 S/m | 2.38 mPa·s | C=C[n+]1ccn(CCCC)c1.NCCCC[C@H](N)C(=O)[O-] + O
1.61 S/m | 5.94 mPa·s | C=C[n+]1ccn(CCCC)c1.N[C@@H](CO)C(=O)[O-] + O

Same assay, conditions: 313.15 K; 101.3 kPa; x1 = 0.3

electrical conductivity | viscosity | SMILES
4.12 S/m | 5.88 mPa·s | C=C[n+]1ccn(CCCC)c1.N[C@@H](Cc1c[nH]cn1)C(=O)[O-] + O
2.16 S/m | 14.44 mPa·s | C=Cn1cc[n+](CCCC)c1.NCC(=O)[O-] + O
3.31 S/m | 10.76 mPa·s | C=C[n+]1ccn(CCCC)c1.N[C@@H](CO)C(=O)[O-] + O

Same assay, conditions: 313.15 K; 101.3 kPa; x1 = 0.5

electrical conductivity | viscosity | SMILES
4.08 S/m | 17.2 mPa·s | C=C[n+]1ccn(CCCC)c1.N[C@@H](Cc1c[nH]cn1)C(=O)[O-] + O
3.34 S/m | 33.65 mPa·s | C=Cn1cc[n+](CCCC)c1.NCC(=O)[O-] + O
3.75 S/m | 54.6 mPa·s | C=C[n+]1ccn(CCCC)c1.N[C@@H](CO)C(=O)[O-] + O

Same assay, conditions: 313.15 K; 101.3 kPa; x1 = 0.7

electrical conductivity | viscosity | SMILES
3.27 S/m | 43.6 mPa·s | C=C[n+]1ccn(CCCC)c1.N[C@@H](Cc1c[nH]cn1)C(=O)[O-] + O
2.31 S/m | 199 mPa·s | C=Cn1cc[n+](CCCC)c1.NCC(=O)[O-] + O
2.54 S/m | 55.38 mPa·s | C=C[n+]1ccn(CCCC)c1.NCCCC[C@H](N)C(=O)[O-] + O
3.19 S/m | 446 mPa·s | C=C[n+]1ccn(CCCC)c1.N[C@@H](CO)C(=O)[O-] + O

Same assay, conditions: 313.15 K; 101.3 kPa; x1 = 0.9

electrical conductivity | viscosity | SMILES
0.99 S/m | 1026 mPa·s | C=C[n+]1ccn(CCCC)c1.N[C@@H](Cc1c[nH]cn1)C(=O)[O-] + O
0.653 S/m | 730 mPa·s | C=Cn1cc[n+](CCCC)c1.NCC(=O)[O-] + O
1.34 S/m | 1167 mPa·s | C=C[n+]1ccn(CCCC)c1.NCCCC[C@H](N)C(=O)[O-] + O
1.1 S/m | 1159 mPa·s | C=C[n+]1ccn(CCCC)c1.N[C@@H](CO)C(=O)[O-] + O

Same assay, conditions: 313.15 K; 101.3 kPa; x1 = 1

electrical conductivity | viscosity | SMILES
0.123 S/m | 2700 mPa·s | C=C[n+]1ccn(CCCC)c1.N[C@@H](Cc1c[nH]cn1)C(=O)[O-] + O
0.013 S/m | 5900 mPa·s | C=Cn1cc[n+](CCCC)c1.NCC(=O)[O-] + O
0.176 S/m | 3700 mPa·s | C=C[n+]1ccn(CCCC)c1.NCCCC[C@H](N)C(=O)[O-] + O
0.01 S/m | 9100 mPa·s | C=C[n+]1ccn(CCCC)c1.N[C@@H](CO)C(=O)[O-] + O

Same assay, conditions: 318.15 K; 101.3 kPa; x1 = 0.1

electrical conductivity | SMILES
3.32 S/m | C=C[n+]1ccn(CCCC)c1.N[C@@H](Cc1c[nH]cn1)C(=O)[O-] + O
1.29 S/m | C=Cn1cc[n+](CCCC)c1.NCC(=O)[O-] + O
2.51 S/m | C=C[n+]1ccn(CCCC)c1.NCCCC[C@H](N)C(=O)[O-] + O
